Where two headings read alike, the source gives them in different places.

The subject of series [1] is NIH/3T3 fibroblast cells. Set-up: method as in earlier work. Conditions: ref 24 (Bai D, Int J Mol Sci 2023, 10.3390/ijms24021121), cited from earlier work.
The subject of series [2] is SiHa cells. Set-up: method as in earlier work. As to conditions: ref 24 (Bai D, Int J Mol Sci 2023, 10.3390/ijms24021121), cited from earlier work.
The subject of series [3] is HeLa cells. On the set-up: method as in earlier work. Conditions: ref 24 (Bai D, Int J Mol Sci 2023, 10.3390/ijms24021121), cited from earlier work.
For series [4], the system named is A2780 cells. On the set-up: method as in earlier work. Conditions: ref 24 (Bai D, Int J Mol Sci 2023, 10.3390/ijms24021121), cited from earlier work.
Series [5] has as its system MCF-7 cells. On the set-up: method as in earlier work. Conditions: ref 24 (Bai D, Int J Mol Sci 2023, 10.3390/ijms24021121), cited from earlier work.
Series [6] deals with MDA-MB-231 cells. Set-up: method as in earlier work. As to conditions: ref 24 (Bai D, Int J Mol Sci 2023, 10.3390/ijms24021121), cited from earlier work.
Series [7] relates to human cancer cell lines (HeLa, SiHa, MCF-7, MDA-MB-231, A2780). The experiment in a line: MTT antiproliferative assay, panel of malignant cells. Conditions: for antiproliferative action at higher concentration (in words): 30 μM. The series is classed as cell-based. The method, then:
The in vitro anticancer effects of the presented compounds were assessed using the standard MTT [3-(4,5-dimethylthiazol2-yl)-2,5-diphenyltetrazolium bromide] assay on the following human cancer cell lines: cervical (HeLa and SiHa), breast (MCF-7 and MDA-MB-231) and ovarian cancer (A2780). The selectivity of the tested compounds was determined on murine embryonal fibroblast cells (NIH/3T3). The utilised cell lines were purchased from the European Collection of Cell Cultures (Salisbury, UK). The cells were cultivated in Eagle’s minimal essential medium supplemented with 10% fetal bovine serum, 1% non-essential amino acids and 1% antibiotic-antimycotic complex (penicillin, streptomycin, amphotericin B) at 37 °C in a humidified atmosphere containing 5% CO2. All media and supplements were purchased from Lonza Group Ltd. (Basel, Switzerland). The cancer cells were seeded into 96-well plates (5000 cells/well) and incubated overnight, and the test compounds were applied in two different concentrations (10 µM and 30 µM) and incubated for another 72 h under cell-culturing conditions. […] After 72 h, 20 µL of the 5 mg/mL MTT solution was added to each well, and the plates were incubated for 4 h. The medium was removed, and the formazan crystals produced by the mitochondrial activity were dissolved in dimethyl sulfoxide (DMSO) via shaking at 37 °C for 30 min. The absorbances were measured at 545 nm using a microplate reader (SPECTROStar Nano, BMG Labtech, Offenburg, Germany). The reference agent was cisplatin, which is a widely used cytotoxic agent. The IC50 values were calculated using sigmoid curve fitting. Two independent experiments were performed with five parallel wells for each condition. Calculations were performed using the GraphPad Prism 9 software (GraphPad Software Inc., San Diego, CA, USA).

Series [8] relates to MCF-7 cells. The experiment in a line: MTT antiproliferative assay, MCF-7. The format is cell-based. As to conditions: Homo sapiens, MCF7; for inhibition at 10 µM: MCF-7, 10 μM; for inhibition at 10 µM / inhibition at 30 µM: 72 h, read-out: Growth inhibition (%) ± SEM; for inhibition at 30 µM: MCF-7, 30 μM. The gist of the method: (§1)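 MTT viability readout (545 nm) following 72 h compound treatment at 10 µM and 30 µM; cisplatin as reference cytotoxic agent.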

The test system of series [9] is SiHa cells. In words: MTT antiproliferative assay, SiHa. As to conditions: Homo sapiens, 72 h; for inhibition at 10 µM / inhibition at 30 µM: read-out: Growth inhibition (%) ± SEM. The series is classed as cell-based. Put shortly:
as §1

In series [10] the test system is HeLa cells. In words: MTT antiproliferative assay, HeLa. The series is classed as cell-based. Conditions: Homo sapiens, 72 h; for inhibition at 10 µM / inhibition at 30 µM: read-out: Growth inhibition (%) ± SEM. The gist of the method:
as §1
(Formazan colour is commonly taken as a measure of viable cells.)

For series [11], the system named is A2780 cells. In words: MTT antiproliferative assay, A2780. The format is cell-based. As to conditions: Homo sapiens; for inhibition at 10 µM: A2780, 10 μM; for inhibition at 10 µM / inhibition at 30 µM: 72 h, read-out: Growth inhibition (%) ± SEM; for inhibition at 30 µM: A2780, 30 μM. Put shortly: as §1
For series [12], the system named is NIH/3T3 fibroblast cells. In words: MTT assay on non-malignant fibroblasts (selectivity). The series is classed as cell-based, murine. Conditions: Mus musculus, NIH3T3; for inhibition at 10 µM: NIH/3T3, 10 μM; for inhibition at 10 µM / inhibition at 30 µM: 72 h, read-out: Growth inhibition (%) ± SEM; for inhibition at 30 µM: NIH/3T3, 30 μM. The gist of the method:
as §1

For series [13], the system named is MDA-MB-231 cells. The experiment in a line: MTT antiproliferative assay, MDA-MB-231. As to conditions: Homo sapiens; for inhibition at 10 µM: MDA-MB-231, 10 μM; for inhibition at 10 µM / inhibition at 30 µM: 72 h, read-out: Growth inhibition (%) ± SEM; for inhibition at 30 µM: MDA-MB-231, 30 μM. The format is cell-based. The gist of the method:
as §1

Turning to `N.N.[Cl][Pt][Cl]` [Cisplatin, cisplatin], the “Growth inhibition (%) ± SEM” value in [1] (NIH/3T3, 10 μM) is 73.88 ± 1.63%; in series [1] (NIH/3T3, 30 μM) it was 97.10 ± 0.15%; in series [2] (10 μM) it was 60.98 ± 0.92%; in series [2] (30 μM), 88.95 ± 0.53%; in series [3] (10 μM), 42.61 ± 2.33%; in series [3] (30 μM), 99.93 ± 0.26%. Moreover, the “Growth inhibition (%) ± SEM” value in series [4] (A2780, 10 μM) is 83.57 ± 1.21%; in [4] (A2780, 30 μM), 95.02 ± 0.28%; in series [5] (MCF-7, 10 μM) it was 53.03 ± 2.29%; in series [5] (MCF-7, 30 μM), 86.90 ± 1.22%; in [6] (MDA-MB-231, 10 μM), 67.51 ± 1.01%; in series [6] (MDA-MB-231, 30 μM), 87.75 ± 1.10%.
The term inhibition denotes the relative decrease from the control value, in per cent. As usually defined, the melting point is the temperature of the solid-liquid transition. In turn, `COC(=O)[C@]1(C)CCC[C@@]2(C)[C@@H]3CC[C@@]4(CO)C[C@]3(CC[C@@H]21)C[C@@H]4N` [Compound 7, (4R,4aS,6aR,8S,9R,11aR,11bS)-Methyl 8-amino-9-(hydroxymethyl)-4,11b-dimethyltetradecahydro-6a,9-methanocyclohepta[a]naphthalene-4-carboxylate] had a melting point of 127 to 130 °C. In addition, the “antiproliferative action at higher concentration (in words)” value (from here on “antiproliferative action”) in series [7] is “pronounced cell growth inhibition”. For the same compound, in series [8], the inhibition at 10 µM came out at 43.1 ± 3.79% and the inhibition at 30 µM was 99.33 ± 0.24%. Moreover, in [9], the inhibition at 10 µM is less than 20% and the inhibition at 30 µM came out at 88.6 ± 2.01%. In series [10], the inhibition at 10 µM is 24.9 ± 2.49% and the inhibition at 30 µM came out at 96.89 ± 0.54%. Further, in [11], the inhibition at 10 µM was determined as 27 ± 4.31% and the inhibition at 30 µM was determined as 91.6 ± 1.97%. In series [12], the inhibition at 10 µM is less than 20% and the inhibition at 30 µM amounted to 97.76 ± 0.7%. Besides, in series [13], the inhibition at 10 µM came out at 28 ± 1.84% and the inhibition at 30 µM worked out at 97.67 ± 0.67%.
On to `COC(=O)[C@]1(C)CCC[C@@]2(C)[C@@H]3CC[C@@]4(CN=[N+]=[N-])C[C@]3(CC[C@@H]21)CC4=O` [Compound 19, (4R,4aS,6aR,9S,11aR,11bS)-Methyl 9-(azidomethyl)-4,11b-dimethyl-8-oxotetradecahydro-6a,9-methanocyclohepta[a]naphthalene-4-carboxylate], for which the melting point lay within 97 to 99 °C. Also, the “antiproliferative action” value in series [7] is reported as “no substantial action”. Also, in series [8], the inhibition at 10 µM is less than 20% and the inhibition at 30 µM came out at 38 ± 1.36%. For the same compound, in [9], the inhibition at 10 µM was less than 20% and the inhibition at 30 µM is less than 20%. Further, in [10], the inhibition at 10 µM stood at 31.6 ± 1.34% and the inhibition at 30 µM was determined as 46.86 ± 0.27%. Further, in series [11], the inhibition at 10 µM was less than 20% and the inhibition at 30 µM is 41.7 ± 1.99%. Further, in series [12], the inhibition at 10 µM was less than 20% and the inhibition at 30 µM is less than 20%. Also, in series [13], the inhibition at 10 µM was less than 20% and the inhibition at 30 µM was less than 20%.
Consider `COC(=O)[C@]1(C)CCC[C@@]2(C)[C@@H]3CC[C@@]4(CN=[N+]=[N-])C[C@]3(CC[C@@H]21)C[C@H]4O` [Compound 20, (4R,4aS,6aR,8R,9S,11aR,11bS)-Methyl 9-(azidomethyl)-8-hydroxy-4,11b-dimethyltetradecahydro-6a,9-methanocyclohepta[a]naphthalene-4-carboxylate], for which the melting point fell in the range of 72 to 74 °C. Moreover, in [7], the “antiproliferative action” value is “no substantial action”. Also, in series [8], the inhibition at 10 µM was less than 20% and the inhibition at 30 µM was 30.7 ± 0.93%. In [9], the inhibition at 10 µM is less than 20% and the inhibition at 30 µM is less than 20%. In addition, in series [10], the inhibition at 10 µM was less than 20% and the inhibition at 30 µM is less than 20%. In addition, in [11], the inhibition at 10 µM was less than 20% and the inhibition at 30 µM worked out at 27 ± 2.25%. In [12], the inhibition at 10 µM was less than 20% and the inhibition at 30 µM was less than 20%. In [13], the inhibition at 10 µM is less than 20% and the inhibition at 30 µM is less than 20%.
For orientation: IC50 means the midpoint of a concentration-inhibition curve. Take `COC(=O)[C@]1(C)CCC[C@@]2(C)[C@@H]3CC[C@@]4(CO)C[C@]3(CC[C@@H]21)C[C@H]4N[C@@H](C)c1ccc2ccccc2c1` [Compound 16, (4R,4aS,6aR,8R,9R,11aR,11bS)-Methyl 9-(hydroxymethyl)-4,11b-dimethyl-8-(((S)-1-(naphthalen-2-yl)ethyl)amino)tetradecahydro-6a,9-methanocyclohepta[a]naphthalene-4-carboxylate]: the melting point was 105 to 108 °C. The compound also returned an IC50 in series [7] (Homo sapiens, range over the five cancer cell lines) of 3.44 to 6.33 µM. For the same compound, in series [8], the inhibition at 10 µM was found to be 81 ± 2.03% and the inhibition at 30 µM came out at 97.95 ± 0.56%. Further, the IC50 in series [8] (MCF-7, 72 h, read-out: calculated IC50) is 3.88 µM. In series [9], the inhibition at 10 µM is 80 ± 1.41% and the inhibition at 30 µM came out at 89.4 ± 1.03%. For the same compound, the IC50 in [9] (read-out: calculated IC50) is 6.33 µM. In series [10], the inhibition at 10 µM amounted to 55.4 ± 2.81% and the inhibition at 30 µM was 95.7 ± 1.12%. Moreover, the IC50 in series [10] (read-out: calculated IC50) is 3.4 µM. Further, the IC50 in series [11] (A2780, 72 h, read-out: calculated IC50) was 4.43 µM. Moreover, in [11], the inhibition at 10 µM is 97.6 ± 2.81% and the inhibition at 30 µM was 100.3 ± 0.57%. Besides, in series [12], the inhibition at 10 µM is less than 20% and the inhibition at 30 µM was determined as 96.83 ± 0.66%. Moreover, in series [12] (NIH/3T3, 72 h, read-out: calculated IC50), the half-inhibitory concentration (IC50) is 17.4 µM. The IC50 in [13] (MDA-MB-231, 72 h, read-out: calculated IC50) was 4.51 µM. Further, in series [13], the inhibition at 10 µM was 84.4 ± 2.92% and the inhibition at 30 µM turned out to be 93.6 ± 1.23%.

The record behind these values is PMC10745768, “Stereoselective Synthesis and Antiproliferative Activity of Steviol-Based Diterpene 1,3-Aminoalcohol Regioisomers” (Molecules, 2023).
